System: HEK293 cells
Test: Preliminary screening as DNA vectors, GFP transfection of HEK293 cells
Type: cell-based
Settings: HEK293 cells; lipid/DOPE liposome with 75 ng plasmid DNA (psin-EGFP-IRES-Puro); number of cells expressing GFP divided by total number of nuclei (Hoechst)
Summary of the method: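 First, amino lipid and DOPE were vortexed in sodium acetate buffer (pH 5.6) to form liposomes. Next, these were held with 75 ng EGFP plasmid at room temperature for 30 min. Finally, HEK293 cells were added, cultured at 37° C., Hoechst-stained, and GFP+/total nuclei scored by imaging.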

| SMILES | Absolute DNA transfection efficiency in HEK293 cells [%] |
| --- | --- |
| CCCCCCCCCCCNc1nc(NCCCCCCC)nc(NCCN(C)C)n1 [Compound N7N11D1] | 1.3 |
| CCCCCCCCCCCNc1nc(NCCCCCCC)nc(NCCN2CCOCC2)n1 [Compound N7N11D2] | 0.1 |
| CCCCCCCCCCCNc1nc(NCCCCCCC)nc(NCCN2CCCC2)n1 [Compound N7N11D3] | 1.0 |
| CCCCCCCCCCCNc1nc(NCCCCCCC)nc(NCCN2CCCCC2)n1 [Compound N7N11D4] | 1.4 |
| CCCCCCCCCCCNc1nc(NCCCCCCC)nc(NCCN2CCN(C)CC2)n1 [Compound N7N11D5] | 0.6 |
| CCCCCCCCCCCNc1nc(NCCCCCCC)nc(NCCCN(C)C)n1 [Compound N7N11D6] | 1.1 |
| CCCCCCCCCCCNc1nc(NCCCCCCC)nc(NCCN(CC)CC)n1 [Compound N7N11D7] | 0.0 |
| CCCCCCCCCCCNc1nc(NCCCCCCC)nc(NCCCN2CCOCC2)n1 [Compound N7N11D8] | 0.0 |
| CCCCCCCCCCCNc1nc(NCCCCCCC)nc(NCCCN2CCN(C)CC2)n1 [Compound N7N11D9] | 0.1 |
| CCCCCCCCCCCNc1nc(NCCCCCCC)nc(NCC2CCN(C)CC2)n1 [Compound N7N11D10] | 0.7 |
| CCCCCCCCCCCCNc1nc(NCCCCCCC)nc(NCCN(C)C)n1 [Compound N7N12D1] | 0.2 |
| CCCCCCCCCCCCNc1nc(NCCCCCCC)nc(NCCN2CCOCC2)n1 [Compound N7N12D2] | 0.0 |
| CCCCCCCCCCCCNc1nc(NCCCCCCC)nc(NCCN2CCCC2)n1 [Compound N7N12D3] | 3.5 |
| CCCCCCCCCCCCNc1nc(NCCCCCCC)nc(NCCN2CCCCC2)n1 [Compound N7N12D4] | 0.0 |
| CCCCCCCCCCCCNc1nc(NCCCCCCC)nc(NCCN2CCN(C)CC2)n1 [Compound N7N12D5] | 0.3 |
| CCCCCCCCCCCCNc1nc(NCCCCCCC)nc(NCCCN(C)C)n1 [Compound N7N12D6] | 0.4 |
| CCCCCCCCCCCCNc1nc(NCCCCCCC)nc(NCCN(CC)CC)n1 [Compound N7N12D7] | 0.0 |
| CCCCCCCCCCCCNc1nc(NCCCCCCC)nc(NCCCN2CCOCC2)n1 [Compound N7N12D8] | 0.1 |
| CCCCCCCCCCCCNc1nc(NCCCCCCC)nc(NCCCN2CCN(C)CC2)n1 [Compound N7N12D9] | 0.1 |
| CCCCCCCCCCCCNc1nc(NCCCCCCC)nc(NCC2CCN(C)CC2)n1 [Compound N7N12D10] | 1.4 |
| CCCCCCCCCCCCCNc1nc(NCCCCCCC)nc(NCCN(C)C)n1 [Compound N7N13D1] | 1.0 |
| CCCCCCCCCCCCCNc1nc(NCCCCCCC)nc(NCCN2CCOCC2)n1 [Compound N7N13D2] | 0.1 |

| SMILES | Absolute DNA transfection efficiency in HEK293 cells [%] |
| --- | --- |
| CCCCCCCCCCCCCNc1nc(NCCCCCCC)nc(NCCN2CCCC2)n1 [Compound N7N13D3] | 0.0 |
| CCCCCCCCCCCCCNc1nc(NCCCCCCC)nc(NCCN2CCCCC2)n1 [Compound N7N13D4] | 0.0 |
| CCCCCCCCCCCCCNc1nc(NCCCCCCC)nc(NCCN2CCN(C)CC2)n1 [Compound N7N13D5] | 0.9 |
| CCCCCCCCCCCCCNc1nc(NCCCCCCC)nc(NCCCN(C)C)n1 [Compound N7N13D6] | 1.6 |
| CCCCCCCCCCCCCNc1nc(NCCCCCCC)nc(NCCN(CC)CC)n1 [Compound N7N13D7] | 0.1 |
| CCCCCCCCCCCCCNc1nc(NCCCCCCC)nc(NCCCN2CCOCC2)n1 [Compound N7N13D8] | 0.0 |
| CCCCCCCCCCCCCNc1nc(NCCCCCCC)nc(NCCCN2CCN(C)CC2)n1 [Compound N7N13D9] | 1.3 |
| CCCCCCCCCCCCCNc1nc(NCCCCCCC)nc(NCC2CCN(C)CC2)n1 [Compound N7N13D10] | 1.6 |
| CCCCCCCCCCCCCCCNc1nc(NCCCCCCC)nc(NCCN(C)C)n1 [Compound N7N15D1] | 1.0 |
| CCCCCCCCCCCCCCCNc1nc(NCCCCCCC)nc(NCCN2CCOCC2)n1 [Compound N7N15D2] | 0.0 |
| CCCCCCCCCCCCCCCNc1nc(NCCCCCCC)nc(NCCN2CCCC2)n1 [Compound N7N15D3] | 5.2 |
| CCCCCCCCCCCCCCCNc1nc(NCCCCCCC)nc(NCCN2CCCCC2)n1 [Compound N7N15D4] | 0.2 |
| CCCCCCCCCCCCCCCNc1nc(NCCCCCCC)nc(NCCN2CCN(C)CC2)n1 [Compound N7N15D5] | 0.0 |
| CCCCCCCCCCCCCCCNc1nc(NCCCCCCC)nc(NCCCN(C)C)n1 [Compound N7N15D6] | 1.6 |
| CCCCCCCCCCCCCCCNc1nc(NCCCCCCC)nc(NCCN(CC)CC)n1 [Compound N7N15D7] | 0.0 |
| CCCCCCCCCCCCCCCNc1nc(NCCCCCCC)nc(NCCCN2CCOCC2)n1 [Compound N7N15D8] | 0.2 |
| CCCCCCCCCCCCCCCNc1nc(NCCCCCCC)nc(NCCCN2CCN(C)CC2)n1 [Compound N7N15D9] | 0.6 |
| CCCCCCCCCCCCCCCNc1nc(NCCCCCCC)nc(NCC2CCN(C)CC2)n1 [Compound N7N15D10] | 0.6 |
| CCCCCCCCCCCCCCCCNc1nc(NCCCCCCC)nc(NCCN(C)C)n1 [Compound N7N16D1] | 0.9 |
| CCCCCCCCCCCCCCCCNc1nc(NCCCCCCC)nc(NCCN2CCOCC2)n1 [Compound N7N16D2] | 0.0 |
| CCCCCCCCCCCCCCCCNc1nc(NCCCCCCC)nc(NCCN2CCCC2)n1 [Compound N7N16D3] | 2.3 |
| CCCCCCCCCCCCCCCCNc1nc(NCCCCCCC)nc(NCCN2CCCCC2)n1 [Compound N7N16D4] | 0.0 |

System: HEK293 cells
Test: Preliminary screening as mRNA vectors, EGFP mRNA transfection of HEK293 cells
Type: cell-based
Settings: HEK293 cells, 96-well plates, EGFP mRNA 50 ng per well; percentage of GFP fluorescent cells relative to total number of cells (Hoechst)
Summary of the method: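 Screening format: EGFP mRNA transfection (50 ng/well) into HEK293 in 10% FBS-supplemented DMEM. Percent green fluorescent cells, normalised to Hoechst nuclear count, gave the value; Lipofectamine2000 was the reference transfectant.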

| SMILES | Absolute mRNA transfection efficiency in HEK293 cells [%] |
| --- | --- |
| CCCCCCCCCCCNc1nc(NCCCCCCC)nc(NCCN(C)C)n1 [Compound N7N11D1] | 0.0 |
| CCCCCCCCCCCNc1nc(NCCCCCCC)nc(NCCN2CCOCC2)n1 [Compound N7N11D2] | 0.0 |
| CCCCCCCCCCCNc1nc(NCCCCCCC)nc(NCCN2CCCC2)n1 [Compound N7N11D3] | 1.3 |
| CCCCCCCCCCCNc1nc(NCCCCCCC)nc(NCCN2CCCCC2)n1 [Compound N7N11D4] | 0.1 |
| CCCCCCCCCCCNc1nc(NCCCCCCC)nc(NCCN2CCN(C)CC2)n1 [Compound N7N11D5] | 0.1 |
| CCCCCCCCCCCNc1nc(NCCCCCCC)nc(NCCCN(C)C)n1 [Compound N7N11D6] | 1.5 |
| CCCCCCCCCCCNc1nc(NCCCCCCC)nc(NCCN(CC)CC)n1 [Compound N7N11D7] | 0.0 |
| CCCCCCCCCCCNc1nc(NCCCCCCC)nc(NCCCN2CCOCC2)n1 [Compound N7N11D8] | 0.0 |
| CCCCCCCCCCCNc1nc(NCCCCCCC)nc(NCCCN2CCN(C)CC2)n1 [Compound N7N11D9] | 0.0 |
| CCCCCCCCCCCNc1nc(NCCCCCCC)nc(NCC2CCN(C)CC2)n1 [Compound N7N11D10] | 0.2 |
| CCCCCCCCCCCCNc1nc(NCCCCCCC)nc(NCCN(C)C)n1 [Compound N7N12D1] | 0.1 |
| CCCCCCCCCCCCNc1nc(NCCCCCCC)nc(NCCN2CCOCC2)n1 [Compound N7N12D2] | 0.0 |
| CCCCCCCCCCCCNc1nc(NCCCCCCC)nc(NCCN2CCCC2)n1 [Compound N7N12D3] | 6.3 |
| CCCCCCCCCCCCNc1nc(NCCCCCCC)nc(NCCN2CCCCC2)n1 [Compound N7N12D4] | 0.6 |
| CCCCCCCCCCCCNc1nc(NCCCCCCC)nc(NCCN2CCN(C)CC2)n1 [Compound N7N12D5] | 0.0 |
| CCCCCCCCCCCCNc1nc(NCCCCCCC)nc(NCCCN(C)C)n1 [Compound N7N12D6] | 0.2 |
| CCCCCCCCCCCCNc1nc(NCCCCCCC)nc(NCCN(CC)CC)n1 [Compound N7N12D7] | 0.0 |
| CCCCCCCCCCCCNc1nc(NCCCCCCC)nc(NCCCN2CCOCC2)n1 [Compound N7N12D8] | 0.0 |
| CCCCCCCCCCCCNc1nc(NCCCCCCC)nc(NCCCN2CCN(C)CC2)n1 [Compound N7N12D9] | 0.0 |
| CCCCCCCCCCCCNc1nc(NCCCCCCC)nc(NCC2CCN(C)CC2)n1 [Compound N7N12D10] | 0.8 |
| CCCCCCCCCCCCCNc1nc(NCCCCCCC)nc(NCCN(C)C)n1 [Compound N7N13D1] | 0.4 |
| CCCCCCCCCCCCCNc1nc(NCCCCCCC)nc(NCCN2CCOCC2)n1 [Compound N7N13D2] | 0.0 |

| SMILES | Absolute mRNA transfection efficiency in HEK293 cells [%] |
| --- | --- |
| CCCCCCCCCCCCCNc1nc(NCCCCCCC)nc(NCCN2CCCC2)n1 [Compound N7N13D3] | 7.8 |
| CCCCCCCCCCCCCNc1nc(NCCCCCCC)nc(NCCN2CCCCC2)n1 [Compound N7N13D4] | 0.3 |
| CCCCCCCCCCCCCNc1nc(NCCCCCCC)nc(NCCN2CCN(C)CC2)n1 [Compound N7N13D5] | 0.9 |
| CCCCCCCCCCCCCNc1nc(NCCCCCCC)nc(NCCCN(C)C)n1 [Compound N7N13D6] | 2.3 |
| CCCCCCCCCCCCCNc1nc(NCCCCCCC)nc(NCCN(CC)CC)n1 [Compound N7N13D7] | 0.0 |
| CCCCCCCCCCCCCNc1nc(NCCCCCCC)nc(NCCCN2CCOCC2)n1 [Compound N7N13D8] | 0.1 |
| CCCCCCCCCCCCCNc1nc(NCCCCCCC)nc(NCCCN2CCN(C)CC2)n1 [Compound N7N13D9] | 0.1 |
| CCCCCCCCCCCCCNc1nc(NCCCCCCC)nc(NCC2CCN(C)CC2)n1 [Compound N7N13D10] | 1.6 |
| CCCCCCCCCCCCCCCNc1nc(NCCCCCCC)nc(NCCN(C)C)n1 [Compound N7N15D1] | 1.3 |
| CCCCCCCCCCCCCCCNc1nc(NCCCCCCC)nc(NCCN2CCOCC2)n1 [Compound N7N15D2] | 0.1 |
| CCCCCCCCCCCCCCCNc1nc(NCCCCCCC)nc(NCCN2CCCC2)n1 [Compound N7N15D3] | 3.8 |
| CCCCCCCCCCCCCCCNc1nc(NCCCCCCC)nc(NCCN2CCCCC2)n1 [Compound N7N15D4] | 0.0 |
| CCCCCCCCCCCCCCCNc1nc(NCCCCCCC)nc(NCCN2CCN(C)CC2)n1 [Compound N7N15D5] | 0.0 |
| CCCCCCCCCCCCCCCNc1nc(NCCCCCCC)nc(NCCCN(C)C)n1 [Compound N7N15D6] | 1.2 |
| CCCCCCCCCCCCCCCNc1nc(NCCCCCCC)nc(NCCN(CC)CC)n1 [Compound N7N15D7] | 0.0 |
| CCCCCCCCCCCCCCCNc1nc(NCCCCCCC)nc(NCCCN2CCOCC2)n1 [Compound N7N15D8] | 0.2 |
| CCCCCCCCCCCCCCCNc1nc(NCCCCCCC)nc(NCCCN2CCN(C)CC2)n1 [Compound N7N15D9] | 0.7 |
| CCCCCCCCCCCCCCCNc1nc(NCCCCCCC)nc(NCC2CCN(C)CC2)n1 [Compound N7N15D10] | 2.5 |
| CCCCCCCCCCCCCCCCNc1nc(NCCCCCCC)nc(NCCN(C)C)n1 [Compound N7N16D1] | 0.5 |
| CCCCCCCCCCCCCCCCNc1nc(NCCCCCCC)nc(NCCN2CCOCC2)n1 [Compound N7N16D2] | 0.1 |
| CCCCCCCCCCCCCCCCNc1nc(NCCCCCCC)nc(NCCN2CCCC2)n1 [Compound N7N16D3] | 1.3 |
| CCCCCCCCCCCCCCCCNc1nc(NCCCCCCC)nc(NCCN2CCCCC2)n1 [Compound N7N16D4] | 0.0 |

Source: patent publication US20230123334A1, “AMINO LIPID COMPOUND, PREPARATION METHOD THEREFOR, AND APPLICATION THEREOF” (SHENZHEN SHENXIN BIOTECHNOLOGY CO., LTD., priority 2020, published 2023)
